Tested on: OVCAR-5 complex spheroids with HUVEC/MSC, viability, % test/control
Assay: Anticancer human tumor OVCAR-5 cell line growth inhibition [AhR];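 further: spheroids exposed to compounds for 7 days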;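 on viability, T/C: 100% = DMSO vehicle control wells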
Details: for IC50: curve of first compound; for viability, T/C: stronger effect = lower value
Description: Multicellular complex tumor spheroid response to aryl hydrocarbon receptor antagonists in combination with a variety of drugs and investigational agents in selected tumor cell lines
The current study was undertaken to assess response to aryl hydrocarbon receptor antagonists in combination with standard-of-care drugs and investigational agents in solid tumor complex spheroid models. Complex spheroids include a stromal component modeled by human endothelial cells (HUVEC) and fibroblasts modeled by human mesenchymal stem cells (MSCs). The concentration ranges selected for each drug and investigational agent were based upon clinically achievable concentrations if the clinical Cmax of the agent was known.
Compounds. The drugs and investigational agents: BAY 2416964 (NSC825713), GNF351 (NSC835774), CH-223191 (NSC835775), CPI-455 (NSC825282), aza-TdCyd (NSC777586), decitabine (NSC127716), belinostat (NSC758774), entinostat (NSC756642), pevonedistat (NSC761192), tazemetostat (NSC777109), talazoparib (NSC765396), olaparib (NSC753686), selinexor (NSC780203), nedisertib (M3814, NSC802822), bortezomib (NSC756655), venetoclax (NSC766270), doxorubicin (NSC123127), elimusertib (BAY189344, NSC800525), ceralasertib (AZD6738, NSC777638), TAK-243 (NSC785004), alisertib (NSC759677), etoposide (NSC141540), topotecan (NSC609699), eribulin (NSC707389), gemcitabine (NSC613327), carboplatin (NSC241240), cisplatin (NSC119875), and SN-38 (NSC673596) were obtained from the National Cancer Institute (NCI) Developmental Therapeutics Program Chemical Repository (32). The FDA-approved anticancer drug set is available from the Developmental Therapeutics Program at https://dtp.cancer.gov/organization/dscb/obtaining/available plates.htm. […] The stock solutions were prepared in dimethyl sulfoxide (DMSO, Sigma-Aldrich, St. Louis, MO, cat. D2650), except for the platinum compounds which were prepared in saline (Quality Biological, Gaithersburg, MD, cat. 114-055-101), at 800-fold the tested concentration and stored at -70 degrees C prior to their use. All drugs and investigational agents were tested over a range starting from a high concentration at or near the clinical Cmax and decreasing in half-log increments. If the clinical Cmax for an agent had not been determined, the highest concentration tested was 10 microM (Table 1).
Cell Culture. All cells were maintained in an incubator at 37 degrees C and 5% CO2 with 95% humidity. The PDC lines were cultured according to standard operating procedures established by the NCI PDMR (https://pdmr.cancer.gov). Briefly, all PDCs were thawed and cultured in Matrigel-coated flasks prepared with a working solution of 1X Ham's F-12 nutrient mix, without supplementation (Invitrogen, Waltham, MA, cat. 11765054), 100 U/mL penicillin-streptomycin (Invitrogen, cat. 15140122), and 2.5% Matrigel (Corning Inc., Corning, NY, cat. 354248) for the first three passages. All PDCs were cultured in complete DMEM/F-12 media containing advanced DMEM/F-12 (Invitrogen, cat. 12634028), 4.9% defined fetal bovine serum, heat inactivated (HyClone Laboratories Inc., Logan, UT, cat. SH30070.03HI), 389 ng/mL hydrocortisone (Sigma-Aldrich, cat. H4001), 9.7 ng/mL human EGF recombinant protein (Invitrogen, cat. PHG0313), 23.4 microg/mL adenine (Sigma-Aldrich, cat. A2786), 97.3 U/mL penicillin-streptomycin (Invitrogen, cat. 15140122), 1.9 mM L-glutamine (Invitrogen, cat. 25030081), and 9.7 microM Y-27632 dihydrochloride (Tocris Bioscience, Bristol, United Kingdom, cat. 1254). The PDCs were cultured in complete DMEM/F12 media without 10 microM Y-27632 dihydrochloride for at least two passages prior to the screen. The established cell lines NCI-H1341 and […] were cultured in DMEM/F-12, HEPES (Invitrogen, cat. 11330032), 5% defined fetal bovine serum (HyClone Laboratories Inc., cat. SH30070.03), ITS premix universal culture supplement [insulin (5 microg/mL), transferrin (5 microg/mL), and selenious acid (5 ng/mL)] […]

Compound `CCc1c2c(nc3ccc(O)cc13)-c1cc3c(c(=O)n1C2)COC(=O)[C@]3(O)CC` + CC(CO)NC(=O)c1cc(-c2ccc(Cl)cc2)nn(-c2cnn(C)c2)c1=O has an IC50 (second compound 0.1 µM) of 6.63 nM, an IC50 (second compound 0.316 µM) of 5.74 nM and an IC50 (second compound 1 µM) of 7.31 nM. The IC50 (second compound 3.16 µM) was 5.58 nM, the IC50 (second compound 10 µM) was 10.6 nM and the viability, T/C (second compound 0.1 µM, first compound 0.000949 µM) was 77.5%. For the same compound, the viability, T/C (second compound 0.1 µM, first compound 0.003 µM) was 55.8%, the viability, T/C (second compound 0.1 µM, first compound 0.00949 µM) was 42.6% and the viability, T/C (second compound 0.1 µM, first compound 0.03 µM) was 37.8%. For the same compound, the viability, T/C (second compound 0.1 µM, first compound 0.0949 µM) was 17.8%, the viability, T/C (second compound 0.1 µM, first compound 0.3 µM) was 6.98% and the viability, T/C (second compound 0.316 µM, first compound 0.000949 µM) was 76%. It also gave a viability, T/C (second compound 0.316 µM, first compound 0.003 µM) of 54%, a viability, T/C (second compound 0.316 µM, first compound 0.00949 µM) of 43.9% and a viability, T/C (second compound 0.316 µM, first compound 0.03 µM) of 32.8%. It also gave a viability, T/C (second compound 0.316 µM, first compound 0.0949 µM) of 18.7%, a viability, T/C (second compound 0.316 µM, first compound 0.3 µM) of 6.72% and a viability, T/C (second compound 1 µM, first compound 0.000949 µM) of 70.5%. It also gave a viability, T/C (second compound 1 µM, first compound 0.003 µM) of 54.6%, a viability, T/C (second compound 1 µM, first compound 0.00949 µM) of 49.7% and a viability, T/C (second compound 1 µM, first compound 0.03 µM) of 35.9%. It also gave a viability, T/C (second compound 1 µM, first compound 0.0949 µM) of 15.5%, a viability, T/C (second compound 1 µM, first compound 0.3 µM) of 7.35% and a viability, T/C (second compound 3.16 µM, first compound 0.000949 µM) of 56.8%. The viability, T/C (second compound 3.16 µM, first compound 0.003 µM) was 47.6%, the viability, T/C (second compound 3.16 µM, first compound 0.00949 µM) was 48.5% and the viability, T/C (second compound 3.16 µM, first compound 0.03 µM) was 35.5%. It also gave a viability, T/C (second compound 3.16 µM, first compound 0.0949 µM) of 14.7%, a viability, T/C (second compound 3.16 µM, first compound 0.3 µM) of 6.85% and a viability, T/C (second compound 10 µM, first compound 0.000949 µM) of 51.7%. It also gave a viability, T/C (second compound 10 µM, first compound 0.003 µM) of 51.4%, a viability, T/C (second compound 10 µM, first compound 0.00949 µM) of 57.5% and a viability, T/C (second compound 10 µM, first compound 0.03 µM) of 34.5%. It also gave a viability, T/C (second compound 10 µM, first compound 0.0949 µM) of 17.7% and a viability, T/C (second compound 10 µM, first compound 0.3 µM) of 7.22%.

`Nc1ccn(C2OC(CO)C(O)C2(F)F)c(=O)n1` (stereo not given) + CC(CO)NC(=O)c1cc(-c2ccc(Cl)cc2)nn(-c2cnn(C)c2)c1=O was tested, and the IC50 (second compound 0.1 µM) was < 31.6 nM, the IC50 (second compound 0.316 µM) was < 31.6 nM and the IC50 (second compound 1 µM) was < 31.6 nM. The IC50 (second compound 3.16 µM) was < 31.6 nM, the IC50 (second compound 10 µM) was < 31.6 nM and the viability, T/C (second compound 0.1 µM, first compound 0.0316 µM) was 34.6%. The viability, T/C (second compound 0.1 µM, first compound 0.1 µM) was 32.1%, the viability, T/C (second compound 0.1 µM, first compound 0.316 µM) was 28.1% and the viability, T/C (second compound 0.1 µM, first compound 1 µM) was 29.9%. It also gave a viability, T/C (second compound 0.1 µM, first compound 3.16 µM) of 30.9%, a viability, T/C (second compound 0.1 µM, first compound 10 µM) of 29.4% and a viability, T/C (second compound 0.316 µM, first compound 0.0316 µM) of 32.9%. For the same compound, the viability, T/C (second compound 0.316 µM, first compound 0.1 µM) was 29.8%, the viability, T/C (second compound 0.316 µM, first compound 0.316 µM) was 28.9% and the viability, T/C (second compound 0.316 µM, first compound 1 µM) was 28.5%. The viability, T/C (second compound 0.316 µM, first compound 3.16 µM) was 31.5%, the viability, T/C (second compound 0.316 µM, first compound 10 µM) was 30.2% and the viability, T/C (second compound 1 µM, first compound 0.0316 µM) was 36.1%. For the same compound, the viability, T/C (second compound 1 µM, first compound 0.1 µM) was 32.4%, the viability, T/C (second compound 1 µM, first compound 0.316 µM) was 29.6% and the viability, T/C (second compound 1 µM, first compound 1 µM) was 30.4%. For the same compound, the viability, T/C (second compound 1 µM, first compound 3.16 µM) was 31.3%, the viability, T/C (second compound 1 µM, first compound 10 µM) was 30.1% and the viability, T/C (second compound 3.16 µM, first compound 0.0316 µM) was 37%. For the same compound, the viability, T/C (second compound 3.16 µM, first compound 0.1 µM) was 32.3%, the viability, T/C (second compound 3.16 µM, first compound 0.316 µM) was 29.6% and the viability, T/C (second compound 3.16 µM, first compound 1 µM) was 28.9%. For the same compound, the viability, T/C (second compound 3.16 µM, first compound 3.16 µM) was 28.7%, the viability, T/C (second compound 3.16 µM, first compound 10 µM) was 29.6% and the viability, T/C (second compound 10 µM, first compound 0.0316 µM) was 39.6%. For the same compound, the viability, T/C (second compound 10 µM, first compound 0.1 µM) was 33.9%, the viability, T/C (second compound 10 µM, first compound 0.316 µM) was 30.9% and the viability, T/C (second compound 10 µM, first compound 1 µM) was 31.2%. It also gave a viability, T/C (second compound 10 µM, first compound 3.16 µM) of 32.8% and a viability, T/C (second compound 10 µM, first compound 10 µM) of 33.8%.

— PubChem BioAssay AID1919015 (Molecular Pharmacology Branch, DTP, NCI, 2023)
